What all share (format): cell-based
Experiment [1] has as its system GFP-polyQ-HA. The experiment in a line: Degradation of expanded polyglutamine (GFP-polyQ-HA) in transfected H4 cells, anti-HA blot. The conditions noted are these: H4 cells transfected with GFP-polyQ-HA, 24 hours, screening concentration and dilutions 1:2.5, 1:5, 1:10, FIG. 2. The protocol: Large-scale accumulation of misfolded protein is a prominent feature of many neurodegenerative diseases. For example, the pathogenic mechanism of Huntington's disease is that a large amount of polyglutamine (polyQ) protein accumulates in the neurons and cannot be cleared away. Tests of polyQ elimination and degradation were used in this experiment to further determine the ability if the tested compounds to induce autophagy.
The compounds selected through screening were dissolved in DMSO and diluted in a stepwise manner in complete culture medium.

For experiment [2], the system named is LC3 II. The experiment in a line: Western blot of LC3 II in H4-LC cells. The text has this: The autophagosome marker LC3 used in the compound-screening platform was subjected to the foregoing processing in the cytosol. Generally when the new LC3 synthesized within the cell was processed, it became cytosolic soluble LC3 I with molecular weight 18 Kd. […] The quantity of LC3 II content reflects to a certain degree the autophagic activity of a cell. Therefore, by assaying the content of LC3 II in the cell by means of the Western blot method, it is possible to further reflect the effect of the compound on autophagy.
H4-LC cells at an appropriate density were inoculated onto a 6-well plate, which was treated with a compound for 4 hours, after which the cells were collected and lysed. The protein fraction was harvested and SDS-PAGE was performed. Following electrophoresis separation the proteins were transferred to a membrane, and immunoblot analysis was performed. The cytoskeleton protein, actin, was used as an internal control.
A general note: A western blot detects proteins with antibodies after separation by electrophoresis.

For experiment [3], the system named is FYVE-RFP. The experiment in a line: High-content analysis of FYVE-RFP fluorescence (PI(3)P level) in H4-FYVE cell line. Conditions: H4-FYVE cells. The text has this:
Class III PI(3)K Vps34 is a multifunctional protein. On the one hand, it catalyzes the phosphorylation of PI to generate PI(3)P and is of key importance in the endocytic and autophagosome membrane transport processes. At the same time, a compound formed from Vps34/beclin1 is involved in the regulation of autophagy initiation signaling. Therefore, while the autophagy process is taking place, the level of PtdIns(3)P should not be expected to decrease to a significant extent. A FYVE domain is a protein structure domain composed of approximately 70 amino acid residues and containing a zinc finger protein structure; it can bind specifically with PI(3)P. Generally, PI(3)P recruits proteins containing a FYVE domain in order to bind to the membrane of cellular organelles, and participate in protein trafficking and similar processes.
H4 cells were transfected with the fusion protein FYVP-red fluorescent protein (FYVE-RFP). After transfection, the cells were screened in order to obtain a suitable H4-FYVE cell line to be used as a screening platform to perform high-volume screening of compounds, which thereby indirectly reflected the effect of the compound on autophagy. Compounds which reduced FYVE-RFP fluorescence intensity were eliminated. In this experiment, change in the intensity, fluorescence and distribution of the protein marker FYVE-RFP recruited by PI(3)P before and after treatment with the potential autophagy inducing compound was assayed by high-content microscopic analysis.
DMSO was used to dilute, dissolve, and prepare a compound at different concentrations with each concentration repeated three times. A 96-well plate was inoculated with H4-FYVE cells at an appropriate density and treated with the compound for 2, 4, and 8 hours, respectively. […] If a compound affected FYVE expression or distribution, then this would be embodied precisely in the image and in the size and intensity of fluorescent spots and other numerical values.

With `O=C1NCN(c2ccccc2)C12CCN(CCCC(c1ccc(F)cc1)c1ccc(F)cc1)CC2` [Fluspirilene], the polyQ degradation result in experiment [1] is “increased polyQ degradation”.
In the case of `CN(C)C(=O)C(CCN1CCC(O)(c2ccc(Cl)cc2)CC1)(c1ccccc1)c1ccccc1.Cl` [Loperamide], the “Increase of endogenous LC3 II / LC3 II/LC3 I percentage” value in experiment [2] is given as “increase of endogenous LC3 II”.
With `CCN(CC)CCCCCCCCOC(=O)c1cc(OC)c(OC)c(OC)c1` [TMB-8], the “Relative fluorescent intensity of FYVE-RFP (%)” value in experiment [3] (2 h) amounted to 89.59 ± 4.79%; in experiment [3] (4 h), 74.72 ± 13.74%; in experiment [3] (8 h), 78.64 ± 10.26%.
Take `CC1=C2C[C@H]3[C@@H](CC=C4C[C@@H](O)CC[C@@]43C)[C@@H]2CC[C@]12O[C@@H]1C[C@H](C)CN[C@H]1[C@H]2C` [Cyclopamine]: the “Relative fluorescent intensity of FYVE-RFP (%)” value in experiment [3] (2 h) worked out at 108.75 ± 12.44%; in experiment [3] (4 h) it was 75.21 ± 1.18%; in experiment [3] (8 h) it was 96.38 ± 5.12%.
With `COC(=O)[C@@]1(O)C[C@H]2O[C@]1(C)n1c3ccccc3c3c4c(c5c6ccccc6n2c5c31)C(=O)NC4` [K252A], the “Relative fluorescent intensity of FYVE-RFP (%)” value in experiment [3] (2 h) is 76.86 ± 6.51%; in experiment [3] (4 h), 65.58 ± 9.36%; in experiment [3] (8 h), 70.33 ± 5.89%.
In the case of `CC(C)(O)[C@H]1O[C@H]2CC[C@@]3(C)[C@@](O)(CC[C@H]4Cc5c([nH]c6ccccc56)[C@@]43C)C2=CC1=O` [Paxilline], the “Relative fluorescent intensity of FYVE-RFP (%)” value was found to be 100.56 ± 0.58% in experiment [3] (2 h), 52.37 ± 1.65% in experiment [3] (4 h) and 56.82 ± 4.44% in experiment [3] (8 h).
The like results for `CN1CCN(C2=Nc3cc(Cl)ccc3Nc3ccccc32)CC1` [Clozapine] were, in that order, 64.04 ± 2.94%, 74.79 ± 13.43% and 78.38 ± 1.35%.
`COC(=O)C1=C(C)NC(C)=C([N+](=O)[O-])C1c1ccccc1C(F)(F)F` (centres unmarked) [Bay K-8644]: the “Relative fluorescent intensity of FYVE-RFP (%)” value in experiment [3] (2 h) is listed as 110.18 ± 25.18%; in experiment [3] (4 h), 57.79 ± 3.76%; in experiment [3] (8 h), 79.70 ± 7.28%.
For `COC(=O)c1c(C)[nH]c(C)c1C(=O)c1ccccc1Cc1ccccc1` [FPL-64176] the same measures were 99.43 ± 9.62%, 78.17 ± 1.90% and 87.62 ± 2.42%.

The record behind these values is US20120077705A1, “Methods for Identifying Autophagy Inducing Compounds” (President and Fellows of Harvard College, priority 2007, published 2012).
